Experimental data published in patent publication US11064658B2, “Method for inducing plants to increase their flavonoid compound content” (Industrial Technology Research Institute, priority 2018, dated 2021).
One block for each compound: values may come before it.

How the values were obtained:
Type in all cases: in vivo
Chrysanthemum morifolium [1] = test: Al ion stimulation for different lengths of time, hydroponic culture; flavonoid glycoside contents by HPLC; details: whole plants, AlCl3 70, 250, 350 μM, 48, 72, 96 hours, compared to control group, had a dose effect
Method: (§1) 1. MS liquid medium was prepared based on the formulation of Table 1 shown in the following. 2. Different amounts of AlCl3 solution were added to the MS liquid medium prepared above to respectively form MS liquid mediums with AlCl3 final concentrations of 0 μM (control group), 70 μM, 250 μM and 350 μM for ready for use. 3. Tissue culture seedlings of Chrysanthemum morifolium (young shoot of Chrysanthemum morifolium) were taken out from solid culture tubes. After that, the solid medium on the root of the plants was washed with water, and the whole plants were inserted into test tubes containing the MS liquid medium with different AlCl3 final concentration prepared above, and the roots of the plants were immersed in the liquid medium. Finally, the above-ground parts of the plants were covered with sealed bags to protect the cuticula on the surfaces of the plant leaves to prevent rapid evapotranspiration of water. 4. After being immersed for 48, 72 and 96 hours, the morphological changes of the plants were observed and the samples of whole plants were collected. Then, the collected samples were lyophilized. 5. After the lyophilization, extraction was performed on the whole plant of Chrysanthemum morifolium. […]

Chrysanthemum morifolium [2] = test: Al ion stimulation at different concentrations for 72 hours, hydroponic culture; flavonoid glycoside contents by HPLC; details: whole plants, AlCl3 100, 150, 200, 250 μM, compared to control group
Method: as §1, with “above.” for “in the following.”, “100” for “70”, “150 μM, 200” for “250”, “250” for “350”, “for” for “for 48,”, “72” for “72 and 96”

Chrysanthemum morifolium [3] = test: Al ion stimulation of flowering plants for 96 hours, soil culture; flavonoid contents of flowers; details: AlCl3 1.25 mM and 2.5 mM, compared to control group
Method: 1. AlCl3 solutions with concentrations of 1.25 mM and 2.5 mM were prepared, respectively. 2. The flowering plants of Chrysanthemum morifolium (adult of Chrysanthemum morifolium) cultured by soil culture together with the soil and flower pots where the plants were located, were immersed in the AlCl3 solutions prepared above. 3. After being immersed for 96 hours, the morphological changes of the plants were observed and the samples of flowers were collected and lyophilized. 4. After the lyophilization, extraction was performed on the flowers of Chrysanthemum morifolium. The extraction method used was water extraction, and the dried flowers and deionized water were mixed at a ratio of 1:20 (g/mL) (i.e., 1 g dry weight of flowers was added to 20 mL of deionized water) to form a mixture. Using a condensing heating system, the mixture was heated to boiling for 90 minutes to complete the extraction and obtain an extract solution. The plant residue in the extract solution was removed by filtration, and then the extract solution was further lyophilized to obtain an extract.

Chrysanthemum morifolium [4] = test: Al ion stimulation alone or combined with ultraviolet irradiation, hydroponic culture; flavonoid glycoside contents by HPLC; details: whole plants, compared to control group
Method: 1. MS liquid medium was prepared based on the formulation of Table 1 shown above. 2. Different amounts of AlCl3 solution were added to the MS liquid medium prepared above to respectively form MS liquid mediums with AlCl3 final concentrations of 0 μM (control group) and 250 μM for ready for use. 3. Tissue culture seedlings of Chrysanthemum morifolium (young shoot of Chrysanthemum morifolium) were taken out from solid culture tubes. After that, the solid medium on the roots of the plants were washed with water, and the whole plants were inserted into test tubes containing the MS liquid medium with different AlCl3 final concentration prepared above, and the roots of the plant were immersed in the liquid medium. Finally, the above-ground parts of the plants were covered with sealed bags to protect the cuticula on the surfaces of the plant leaves to prevent rapid evapotranspiration of water. 4. […] The plants were then allowed to recover for 1 hour. After the recovery, the morphological changes of the plants were observed and samples of whole plants were collected. Then, the collected samples were lyophilized. 5. After the lyophilization, extraction was performed on the whole plant of Chrysanthemum morifolium. The extraction method used was water extraction, and the dried plant and deionized water were mixed at a ratio of 1:20 (g/mL) (i.e., 1 g dry weight of plant was added to 20 mL of deionized water) to form a mixture. Using a condensing heating system, the mixture was heated to boiling for 90 minutes to complete the extraction and obtain an extract solution. The plant residue in the extract solution was removed by filtration, and then the extract solution was further lyophilized to obtain an extract. 6. High-performance liquid chromatography was performed on the extract mentioned above to determine the contents of luteolin-7-O-β-D-glycoside and […] which belong to flavonoid compounds.

Ixeris chinensis = test: Al ion stimulation alone or combined with ultraviolet irradiation, hydroponic culture; total flavonoid content of flowers and pedicels; details: for total flavonoid content: flowers and pedicels, compared to control group
Method: 1. MS liquid medium was prepared according to the formulation of Table 1 shown above. 2. Different amounts of AlCl3 solution were added to the MS liquid medium prepared above to respectively form MS liquid mediums with AlCl3 final concentrations of 0 mM (control group) and 1.25 mM for ready for use. 3. […] chinensis plants were sampled from the field. Leaves and pedicels of the above-ground part and root of the under-ground part of the […] chinensis plant were wiped and wash with water and the root were allowed in a form of bare root. After that, the whole plant was inserted into a test tube containing the MS liquid medium with AlCl3 prepared above, and the root of the plant was immersed in the liquid medium. 4. At the 73th hour of the immersion, the plants were irradiated with ultraviolet B for 1 hour. The plants were then allowed to recover for 3 hour. After the recovery, the morphological changes of the plants were observed and samples of flowers and pedicels were collected. Then, the collected samples were lyophilized. 5. The collected flowers and pedicels of the fresh plant were extracted with 30% ethanol and subjected to total flavonoid content analysis.

Chrysanthemum morifolium [5] = test: Al ion stimulation alone or combined with ultraviolet irradiation, solid medium culture; total flavonoid content; details: whole plant, compared to control group
Method: 1. Different amounts of AlCl3 were added to the formulation of Table 2 shown above to respectively form MS solid mediums with final concentration of 0 μM (control group) and 350 μM for ready for use. 2. A terminal bud of a tissue culture seedling of Chrysanthemum morifolium (young shoot of Chrysanthemum morifolium) was cut and inserted to a solid medium without addition of the stimulation ion. After the plant had grown roots, the root part of the plant having the root with a length of less than 0.5 cm was inserted to the solid medium prepared above to perform the solid medium culture. 4. On the 41st day of the culture, the plants were irradiated with ultraviolet B for 0, 1, 2 and 4 hours, respectively. The plants were then allowed to recover for 3 hours. After the recovery, the morphological changes of the plants were observed and samples of whole plants (plants stimulated by Al ions alone, plants irradiated with 1 hour of ultraviolet alone, and plants stimulated by Al ions and 1, 2, and 4 hours of ultraviolet irradiation were obtained) were collected. After that, the collected samples were lyophilized. 5. After the lyophilization, extraction was performed on the whole plant. […] Quantitative analysis of total flavonoids was performed on the extracts mentioned above.

Chrysanthemum morifolium [6] = test: Cu ion stimulation alone or combined with ultraviolet irradiation, hydroponic culture; flavonoid glycoside contents by HPLC; details: whole plants, compared to control group
Chrysanthemum morifolium [7] = test: Zn ion stimulation for 40 days, solid medium culture; flavonoid glycoside contents by HPLC; details: whole plants, Zn ion 15, 30, 45 mM, compared to control group (3 mM)
Method: 1. Different amounts of ZnSO4 were added to the formulation of Table 2 shown in the following to respectively form MS solid mediums with different Zn ion final concentration of 3 mM (control group), 15 mM, 30 mM and 45 mM for ready for use. 2. A terminal bud of a tissue culture seedling of Chrysanthemum morifolium (young shoot of Chrysanthemum morifolium) was cut and inserted to the solid medium prepared above (since a rooted plant was not easy to insert into solid medium, the experiment was performed in this way) to perform the solid medium culture. Since Zn is mainly absorbed by the roots of plants, the evaluation only could start after the plant had grown roots. The Zn element could be absorbed and utilized by the plant only after the plant had grown roots. Plants were allowed to absorb zinc during growth and development, thereby causing changes in physiological and compositional components in the plants. 3. After being cultured for 40 days, the morphological changes of the plants were observed and the samples of whole plants were collected. Then, the collected samples were lyophilized. 4. After the lyophilization, extraction was performed on the whole plant of Chrysanthemum morifolium. […]

[8] = AlCl3 250 μM plus ultraviolet B 1 hour at 97th hour, recovery 1 hour
[9] = CuSO4 250 μM plus ultraviolet B 1 hour at 97th hour, recovery 1 hour

appearance of plants before and after the ultraviolet irradiation, under Al ion stimulation (Ixeris chinensis; AlCl3 1.25 mM, ultraviolet B 1 hour): no significant difference
SMILES: [Cl][Al]([Cl])[Cl] [Al ions, AlCl3]
content of apigenin-7-O-β-D-glycoside (Chrysanthemum morifolium [1]): significantly increased
content of luteolin-7-O-β-D-glycoside (Chrysanthemum morifolium [1]): significantly increased
content of apigenin-7-O-β-D-glycoside (Chrysanthemum morifolium [2]): significantly increased about twofold to threefold
content of luteolin-7-O-β-D-glycoside (Chrysanthemum morifolium [2]): significantly increased about twofold to threefold
content of apigenin (Chrysanthemum morifolium [3]): significantly increased
content of apigenin-7-O-β-D-glycoside (Chrysanthemum morifolium [3]): significantly increased
content of luteolin-7-O-β-D-glycoside (Chrysanthemum morifolium [3]): significantly increased
content of apigenin-7-O-β-D-glycoside (Chrysanthemum morifolium [4]; [8]): about 40 fold
content of luteolin-7-O-β-D-glycoside (Chrysanthemum morifolium [4]; [8]): about 40 fold
content of apigenin-7-O-β-D-glycoside (Chrysanthemum morifolium [4]; AlCl3 250 μM, Al ions alone): increased
content of luteolin-7-O-β-D-glycoside (Chrysanthemum morifolium [4]; AlCl3 250 μM, Al ions alone): increased
total flavonoid content (Ixeris chinensis; AlCl3 1.25 mM plus ultraviolet B 1 hour at 73th hour, recovery 3 hour): about 3.5 fold
total flavonoid content (Ixeris chinensis; AlCl3 1.25 mM, Al ions alone): increased
total flavonoid content (Chrysanthemum morifolium [5]; AlCl3 350 μM plus ultraviolet B 1, 2, 4 hours on 41st day, recovery 3 hours): increased
total flavonoid content (Chrysanthemum morifolium [5]; AlCl3 350 μM, Al ions alone): increased

SMILES: O=S(=O)([O-])[O-].[Cu+2] [Cu ions, CuSO4]
content of apigenin-7-O-β-D-glycoside (Chrysanthemum morifolium [6]; [9]): about 37 fold
content of luteolin-7-O-β-D-glycoside (Chrysanthemum morifolium [6]; [9]): about 37 fold
content of apigenin-7-O-β-D-glycoside (Chrysanthemum morifolium [6]; CuSO4 250 μM, Cu ions alone): increased
content of luteolin-7-O-β-D-glycoside (Chrysanthemum morifolium [6]; CuSO4 250 μM, Cu ions alone): increased

SMILES: O=S(=O)([O-])[O-].[Zn+2] [Zn ions, ZnSO4]
content of apigenin-7-O-β-D-glycoside (Chrysanthemum morifolium [7]): significantly increased about sevenfold to eightfold
content of luteolin-7-O-β-D-glycoside (Chrysanthemum morifolium [7]): significantly increased about sevenfold to eightfold
